Measurements from PubChem BioAssay (NCI).
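How tested: cells in 96-well plates exposed to compound for 48 hours at five concentrations. TGI is the concentration that stops growth completely.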

Legend:
Test in all cases: inhibition of tumour cell growth, NCI panel, 48 h
COLO 205 colon = tested on: COLO 205 colon
SNB-19 CNS = tested on: SNB-19 CNS
K-562 leukemia = tested on: K-562 leukemia
NCI-H522 lung = tested on: NCI-H522 lung
A498 renal = tested on: A498 renal
786-0 renal = tested on: 786-0 renal
NCI-H226 lung = tested on: NCI-H226 lung
OVCAR-5 ovarian = tested on: OVCAR-5 ovarian
SR leukemia = tested on: SR leukemia
SF-268 CNS = tested on: SF-268 CNS
M14 melanoma = tested on: M14 melanoma
SW-620 colon = tested on: SW-620 colon
UACC-62 melanoma = tested on: UACC-62 melanoma
BT-549 breast = tested on: BT-549 breast
ACHN renal = tested on: ACHN renal
LOX IMVI melanoma = tested on: LOX IMVI melanoma
EKVX NSCLC = tested on: EKVX NSCLC
NCI-H23 lung = tested on: NCI-H23 lung
MDA-N = tested on: MDA-N
MCF7 breast = tested on: MCF7 breast
HL-60(TB) leukemia = tested on: HL-60(TB) leukemia
HT29 colon = tested on: HT29 colon
SNB-75 CNS = tested on: SNB-75 CNS
MOLT-4 leukemia = tested on: MOLT-4 leukemia
SK-MEL-2 melanoma = tested on: SK-MEL-2 melanoma
PC-3 prostate = tested on: PC-3 prostate
UACC-257 melanoma = tested on: UACC-257 melanoma
U251 CNS = tested on: U251 CNS
T-47D breast = tested on: T-47D breast
SK-MEL-28 melanoma = tested on: SK-MEL-28 melanoma
IGROV1 ovarian = tested on: IGROV1 ovarian
CAKI-1 renal = tested on: CAKI-1 renal
HCT-116 colon = tested on: HCT-116 colon
MDA-MB-231 breast = tested on: MDA-MB-231 breast
A549 NSCLC = tested on: A549 NSCLC
MDA-MB-435 = tested on: MDA-MB-435
SF-539 CNS = tested on: SF-539 CNS
HOP-92 NSCLC = tested on: HOP-92 NSCLC
UO-31 renal = tested on: UO-31 renal
NCI-H460 lung = tested on: NCI-H460 lung
SK-MEL-5 melanoma = tested on: SK-MEL-5 melanoma
RPMI-8226 leukemia = tested on: RPMI-8226 leukemia
SF-295 CNS = tested on: SF-295 CNS
MALME-3M melanoma = tested on: MALME-3M melanoma
HCT-15 colon = tested on: HCT-15 colon
CCRF-CEM leukemia = tested on: CCRF-CEM leukemia
KM12 colon = tested on: KM12 colon
OVCAR-3 ovarian = tested on: OVCAR-3 ovarian
RXF 393 renal = tested on: RXF 393 renal
NCI/ADR-RES ovarian = tested on: NCI/ADR-RES ovarian
TK-10 renal = tested on: TK-10 renal
SK-OV-3 ovarian = tested on: SK-OV-3 ovarian
OVCAR-4 ovarian = tested on: OVCAR-4 ovarian
DU-145 prostate = tested on: DU-145 prostate
OVCAR-8 ovarian = tested on: OVCAR-8 ovarian
SN12C renal = tested on: SN12C renal
HS 578T breast = tested on: HS 578T breast
HOP-62 NSCLC = tested on: HOP-62 NSCLC
HCC-2998 colon = tested on: HCC-2998 colon

Measured: TGI

O=C(O)CC(Nc1ccccc1)C(=O)O (stereo not drawn)
not listed: HCC-2998 colon
> 100 µM: all other assays above

Cc1cc(O)c(C(c2cccnc2)c2c(O)cc(C)[nH]c2=O)c(=O)[nH]1
not listed: A498 renal | NCI-H226 lung | SW-620 colon | SNB-75 CNS | SK-MEL-2 melanoma | SF-539 CNS | HOP-92 NSCLC | HCC-2998 colon
> 100 µM: all other assays above

CN1C2CCC1C(C(O)c1ccccc1[N+](=O)[O-])C(=O)C2 (stereo not drawn)
73.3 µM: NCI-H226 lung
75.7 µM: MDA-N
80.4 µM: SF-539 CNS
53 µM: MDA-MB-435
86.8 µM: DU-145 prostate
91.9 µM: NCI/ADR-RES ovarian
87.7 µM: T-47D breast
not listed: SR leukemia | SNB-75 CNS | HOP-92 NSCLC | RXF 393 renal
> 100 µM: all other assays above

C=C(C)CC1=C(OCC)C(OC)(OCC)C1=O (stereo not drawn)
not listed: K-562 leukemia | SR leukemia | RPMI-8226 leukemia | MALME-3M melanoma | RXF 393 renal | HCC-2998 colon
> 100 µM: all other assays above

CCCCOC(=O)C1CN2C=CC=NC2=NC1(C(F)(F)F)C(F)(F)F (stereo not drawn)
not listed: NCI-H522 lung | SR leukemia
> 100 µM: all other assays above

COC(=O)C(=O)c1c2ccccc2n2ccc3c4ccccc4[nH]c3c12
not listed: A498 renal | SK-MEL-28 melanoma
> 10 µM: all other assays above

COC(=O)C1C(O)CCC2CN3CCc4c([nH]c5cccc(OC)c45)C3CC21 (stereo not drawn)
not listed: SK-MEL-5 melanoma | NCI/ADR-RES ovarian
> 100 µM: all other assays above
